B1: DBT sulfone monooxygenase BdsA from Bacillus subtilis WU-S2B (enzyme)
chain: MAEQRQLHLAGFFSAGNVTHAHGAWRHVGATNGFLTGEFYKQIARTLERGKFDLLFLPDGLAIEDSYGDNLETGVGLGGQGAVALEPTSVIATMAAVTQRLGLGATVSTTYYPPYHVARVFATLDNLSDGRISWNVVTSLNDSEARNFGVDEHLEHDIRYDRADEFLEAVKKLWSSWSEDALLLDKVGGRFADPKKVQYVNHRGRWLSVRGPLQVPRSRQGEPVILQAGLSPRGRRFAGRWAEAVFSVSPNLDIMRAVYQDIKAHVAAAGRDPEQTKVFTAVMPVLGETEQVARERLEYLNSLVHPEVGLSTLSSHSGLNLSKYPLDTKFSDIVADLGDRHVPTMLQMFSAVAGGGADLTLAELGRRYGTNVGFVPQWAGTAEQIADQLISHFEAGAADGFIISPAYLPGIYEEFVDQVVPLLQQRGVFRTEYEGTTLREHLGLAHPEVGSIR
notes: BdsA (DBT sulfone monooxygenase), Bacillus subtilis WU-S2B; synthesized bdsA gene cloned into the NdeI and XhoI sites of pET-15b; each monomer is composed of 453 amino acids; in the crystal the N-terminus to Gln4 and Ser451 to the C-terminus are not visible; No removal of the His-tag is described; also called apo-BdsA; dibenzothiophene sulfone monooxygenase; source: E. coli BL21 (DE3), purified …

Assays:
BdsA = target: T1, BdsA (Bacillus subtilis, UniProt Q8GRC7); assay: X-ray crystallography, […] A, crystal soaking; type: binding; conditions: crystals soaked in 1 mM FMN for 30 min, pH 5.5; one FMN per subunit, active site
T1 construct: monomer 453 residues; homotetramer, ~220 kDa by gel filtration

[1] = target: the molecule itself; assay: SEC; Superdex-200 gel filtration in 10 mM Tris-HCl (pH 8.0), 100 mM NaCl; oligomeric state in solution from the elution volume (~220 kDa)

Row | Molecule | X-ray crystallography, 2.4 A, crystal soaking (BdsA) | stoichiometry N [1]
1 | Cc1cc2nc3c(=O)[nH]c(=O)nc-3n(C[C@H](O)[C@H](O)[C@H](O)COP(=O)(O)O)c2cc1C [FMN] | The structure of the tetrameric BdsA–FMN complex contains four FMN molecules | 
2 | B1 |  | 4

From paper PMC5819316, “Structural and Biochemical Characterization of BdsA from Bacillus subtilis WU-S2B, a Key Enzyme in the “4S” Desulfurization Pathway” (Frontiers in Microbiology, 2018)
